This note sets out measurements from patent US12589090B2, “Compounds and methods for the treatment of degenerative disorders” (Aquilus Pharmaceuticals, Inc., priority 2019, dated 2026).

Series [1] can be described thus: In-vivo oral rat pharmacokinetics (Example 15). Particulars: male Sprague-Dawley rats, dose level 10 mg/kg, 0.5% MC, plasma, mean. On the procedure:
Understanding the pharmacokinetics in species typically employed in preclinical animal testing is an essential component of drug discovery. […] Procedure: Six (6) male Sprague-Dawley rats were used. Fasting was conducted at least 16 hours prior to dose administration. Food was returned at approximately 4 hours post dose. The animals were placed into 2 groups of 3 animals per group. The oral (PO) formulation for Groups 1 & 2 were prepared on the day of dosing at a target concentration of 0.5 mg/mL in 0.5% Methylcellulose (400 cps) to produce a white, homogeneous suspension. Dosing was performed as outlined in Table 1:
Whole blood samples (0.250 mL; K2EDTA anticoagulant) were collected from each animal through a jugular vein catheter. Whole blood samples were collected from all animals pre-dose, and at 0.25, 0.5, 1, 2, 4, 8, 16, and 24 hours after dose administration. All blood samples were immediately placed on ice until processing. Whole blood samples were centrifuged at 2200×g for 10 minutes in a refrigerated centrifuge (5±3° C.) to isolate plasma. The plasma samples were transferred to individual polypropylene vials and immediately placed on dry ice before storage at nominally −20±5° C. The plasma samples sometime later were then thawed and extracted and analyzed by high pressure liquid chromatography (HPLC) coupled to Mass Spectrometry (MS) (Table 2). Pharmacokinetic parameters (Table 3) were estimated using WinNonlin® pharmacokinetic software (Version No. 5.2.1) using a non-compartmental approach consistent with the PO route of administration.

The test system of series [2] is SOD-1 overexpression in Drosophila motor neurons. Briefly: SOD-1 Drosophila model of ALS, larval turning read-out (Example 24). It counts as in vivo. The following applies: 1 microMolar, SOD-1 (wild-type and G85R) overexpression, vs. DMSO vehicle. On the procedure: (§1) Procedure: Following the method of Zarnescu and coworkers (Human Molecular Genetics, 24(6), 1741-1754, 2015). UAS SOD-1 male Drosophila flies were crossed with D42-Gal4 female virgins on fly food containing either DMSO or 1% Compound 118 in dimethyl sulfoxide (DMSO). For DMSO controls, the same volume of DMSO as the corresponding Compound 118 concentration was added. Bromophenol blue was added to a final concentration of around 0.02% to ensure homogeneity. Crosses were made on drug food with three female virgins and two males in each vial and were maintained at 25° C. unless noted. The parents were discarded after 5-7 days and then the vials were screened for adult progeny with straight wings from Day 14 to Day 25. All adults were screened for SOD-1 expression. Read-outs involved the larval turning assay.
SOD-1^wt=Wild-type, SOD1^G85R=Diseases associated G85R mutant expressed in motor neurons. […], ***p<0.001 as compared to DMSO vehicle.

Series [3] concerns TDP-43 overexpression in Drosophila motor neurons. As to the kind of experiment: TDP-43 Drosophila model of ALS, larval turning read-out (Example 23). It counts as in vivo. Particulars: 1 microMolar, TDP-43 (wild-type and G298S) overexpression, vs. DMSO vehicle. Here is the method: as §1, with “Procedure:” for “Procedure: Following the method of Zarnescu and coworkers (Human Molecular Genetics, 24(6), 1741-1754, 2015).”, “TDP-43” for “SOD-1”, “TDP-43 expression by visualizing the YFP tag. Total number of pupae was counted on Day 25. Percent survival was calculated using the formula (total number of straight-winged adults/total number of pupae)×100. All experiments were performed in triplicate.” for “SOD-1 expression.”, “include” for “involved the”, “assay and pupil lethality screen.” for “assay.”
TDP^WT=Wild-type TDP-43, TDP^G298S=Diseases associated G298S mutant expressed in motor neurons. […], ***p<0.001 as compared to DMSO as vehicle.

Each structure is given as a SMILES string.

As for `[2H]C([2H])([2H])c1ccc(C#Cc2ccc(S(=O)(=O)N[C@H](Cc3c[nH]c4ccccc34)C(=O)O)s2)cc1` [Compound 118, (R)-3-(1H-Indol-3-yl)-2-[5-(4-trideuteromethyl-phenylethynyl)-thiophene-2-sulfonylamino]-propionic acid-(D3, 98%)], in series [1], the AUC(0-inf) is 7730 ng·h/mL, the area under the curve AUC(0-t) amounted to 7680 ng·h/mL, the highest level (Cmax) was 2740 ng/mL and the half-life was 1.47 h. Also, in series [2], the “locomotive defects via larval turning times” value is “able to mitigate locomotive defects”. In series [3], the “locomotive defects via larval turning times” value is “able to mitigate locomotive defects”.
